For assay [1], the system named is CD4+ T cells. As to the kind of experiment: Immunological screening in vitro in CD4+ T cells (flow cytometry). To be noted: for significance of change in IFNγ/TNFα production relative to vehicle treated control: tested at 100 nM and 1 μM, P<0.05; for reduction in IFNγ production: 24 h, anti-CD3/CD28, PMA/ionomycin last 6 h. Type of assay: cell-based, C57BL/6 mice. The text has this: (§1) Cell culture. Spleens were excised from C57BL/6 mice. Spleens were crushed between the frosted ends of microscope slides and filtered to provide a cellular suspension. Red blood cells were lysed through hypotonic lysis. Remaining cells were washed and filtered. CD4+ T cells were enriched within the suspension using magnetic sorting based negative selection. Cells were collected and plated within 96 well plates coated with anti-CD3/CD28 and cultured in the presence of PX-02, PX-04, PX-07, PX-08 and PX-09 at 0, 0.1 or 1 micromolar for 24 h. During the last 6 h of culture, cells were stimulated with phorbol 12-myristate-13-acetate (PMA) and ionomycin.
(§2) Immunological analysis. Cells were collected from 96 well plates and stained with a cocktail of antibodies for immunophenotyping by flow cytometry. Culture supernatant was collected and assayed for cytokine concentrations by cytometric bead array. Data was captured on a BD FACS Celesta and analyzed using FACSDiva.

Assay [2] has as its system CD4+ T cells deficient in PLXDC2. The experiment in a line: Specificity test in PLXDC2 deficient CD4+ T cells. Type of assay: cell-based. To be noted: 100 nM or 1 μM; for IFNγ in the absence of PLXDC2: FIG. 4A; for TNFα in the absence of PLXDC2: FIG. 4B. As for the experimental part:
FIGS. 4A and 4B. Immunological validation of PX-04 and PX-07 specificity in CD4+ T cells. Percentages of IFNγ+(FIG. 4A) and TNFα+ (FIG. 4B) CD4+ T cells deficient in PLXDC2 were measured by flow cytometry after in vitro treatment of cells with PX compounds at concentrations of 0.1 and 1 micromolar. Statistical significance (P<0.05) is marked by asterisks.
as §1, §2
To determine the specificity of response to the PLXDC2 receptor, PX-04 and PX-07 were tested further in PLXDC2 deficient cells.

The test system of assay [3] is bone marrow-derived macrophages (BMDMs). The experiment in a line: Immunological screening in vitro in LPS-challenged bone marrow-derived macrophages (qRT-PCR, Luminex). Type of assay: cell-based, C57BL/6 mice. To be noted: 0.1 and 1 micromolar, dose dependent; for IFNγ in the supernatant / IL-6 in the supernatant / TNF in the supernatant / concentration of IL-10 in the supernatant: Luminex, LPS 6 h; for IL-10 expression by RNA / expression of TNF by RNA: qRT-PCR, LPS 2 h. As for the experimental part:
Cell culture. Bone marrow was flushed from the femur and tibia of C57BL/6 mice. Bone marrow was then resuspended and filtered to provide a cellular suspension. Red blood cells were lysed through hypotonic lysis. Remaining cells were washed and filtered. Isolated cells were incubated in the presence of M-CSF for 7 days to differentiate cells into macrophages. Cells were harvested, plated within 24 well plates and cultured in the presence of PX-04 or PX-07 at 0, 0.1 or 1 micromolar for 12 h. During the last 2-6 h of culture, cells were stimulated with lipopolysaccharide. After stimulation for 2 h, cells were collected for the isolation of RNA. Gene expression was quantified by qRT-PCR. After stimulation for 6 h, supernatant was collected for detection of cytokines by Luminex.
A general note: Quantitative PCR measures a nucleic acid by following its amplification.

Assay [4] relates to mice challenged with DSS. As to the kind of experiment: DSS model of colitis (acute IBD model). The class given is in vivo. On the procedure: DSS model. Mice were given DSS in drinking water for seven days to induce disruption of the epithelial layer. At project initiation, mice were 8 weeks of age and began dosing 24 hours after being placed on DSS. Mice were weighed and scored daily for symptoms of disease (diarrhea, rectal bleeding, rectal inflammation, overall behavior). PX-04 was prepared within a 0.5% methylcellulose (12-15 cP) solution. Dosage used was 20 mg/kg delivered once daily. Dosage was calculated based off mean body weights for each gender. Oral dosage was delivered by orogastric gavage of dosage in 0.2 mL volume. Flow Cytometry. Colons were collected into RPMI/FBS buffer containing collagenase (300 U/mL) and DNase (50 U/mL) for digestion. Tissues were digested for 60 minutes under stirring at 37° C. Resultant cellular suspensions were filtered through 100 μm strainers, centrifuged (300×g, 8 min), and washed in fresh RPMI. Following filtration of the resulting single cell suspensions, immune cells were purified by Percoll gradient of cell-containing 40% Percoll overlayed onto 70% Percoll solution. After centrifugation, interphase was collected and washed to obtain enriched colonic lamina propria cell fractions. Cells were labeled with mixtures of extracellular (CD45, CD3, CD4, CD8, CD19, NK1.1, CD25, F4/80, CD11b, Gr1, CX3CR1, CD64) and intracellular (Tbet, RORγT, FOXP3, IFNγ, IL17, IL10) antibodies in a sequential live staining in 96-well plates. Data was acquired using a FACS Celesta flow cytometer with FACSDiva software.

Assay [5] relates to DBA/2 mice injected with STZ. The experiment in a line: STZ model of diabetic nephropathy. The class given is in vivo. To be noted: daily oral gavage; for albumin/creatinine ratio in urine: 12 weeks of treatment. As for the experimental part: STZ models. Streptozotocin (STZ) can be used to induce diabetes in both rats and mice. Mice were used for the assessment of nephropathy. DBA/2 mice were injected with 40 mg/kg STZ by intraperitoneal injection for 5 consecutive days. Mice were randomized to vehicle- or PX-04-treated arms after confirmation of diabetes on day 10 (n=12). PX-04 was administered daily for 12 weeks by oral gavage after a damage accrual stage. Separately, mice were randomized to vehicle- or PX-07-treated arms after confirmation of diabetes on day 10 (n=8). PX-07 was administered daily for 12 weeks by oral gavage after a damage accrual stage.
Kidney function. Kidney function was assessed by collection of urine and histological assessment of kidneys. Urine was assayed for albumin/creatinine ratio. Kidneys were scored using a composite scoring method (0-9) encompassing glomerular area, mesangial expansion, and renal fibrosis.

Assay [6] deals with NZB/W F1 mice. The experiment in a line: NZB/W F1 model of SLE. The class given is in vivo. To be noted: 10 mg/kg daily oral. As for the experimental part: NZB/W F1 model. Twenty-four-week-old, female NZB/W F1 mice were randomized into vehicle or PX-04 treated arms based on baseline urine protein levels (n ═10). PX-04 was administered daily at 10 mg/kg for 12 weeks. Mice will be weighed on a weekly basis to update dosage formulation. Dosage will be calculated based off mean body weights.
Immunological analysis. Urine was collected for assay for protein content to test for kidney function at baseline, 6, and 12 weeks of treatment. Spleens were excised, crushed and filtered to provide a cellular suspension. Red blood cells were lysed. Cells were labeled with mixtures of extracellular (CD45, CD3, CD4) and intracellular (IL10) antibodies in a sequential live staining in 96-well plates in preparation for flow cytometry. Data was captured on a BD FACS Celesta and analyzed using FACSDiva.

Assay [7] deals with rats with collagen-induced arthritis. The experiment in a line: Collagen-induced arthritis in rats. Type of assay: in vivo, Lewis rats. On the procedure: (§3) Models. Six-week-old C57Bl/6 mice were immunized with 200 μg of chicken collagen emulsified in complete Freund's adjuvant by intradermal injections at the base of the tail (n=8). Mice were treated with 5 mg/kg of PX-07 or vehicle daily for four weeks. Five- to six-week-old Lewis rats (n=8) were immunized with 200 μg of bovine collagen emulsified in incomplete Freund's adjuvant by intradermal injection into the base of the tail. A second boosting immunization was given after one week. PX-04 was administered daily at 2 or 20 mg/kg for 3 weeks.
(§4) Immunological analysis. Spleens were excised from mice and inguinal lymph nodes were excised from rats. Tissues were crushed and filtered to provide a cellular suspension. Red blood cells were lysed. Cells were labeled with mixtures of extracellular (CD45, CD3, CD4, CD8, B220, CD19, CD138, CD21, CD24, CD1d, CD11b, CD86, CD80) and intracellular (BCL6, IL21, IL10, TNF) antibodies in a sequential live staining in 96-well plates in preparation for flow cytometry. Data was captured on a BD FACS Celesta and analyzed using FACSDiva.

Assay [8] deals with mice with collagen-induced arthritis. The experiment in a line: Collagen-induced arthritis in mice. The class given is in vivo, C57Bl/6 mice. To be noted: 5 mg/kg daily oral, four weeks. On the procedure: as §3, §4
The mark [9] stands for this setting: 20 mg/kg oral, colonic lamina propria, day 7.
Where [10] appears, read: 2 and 20 mg/kg daily oral, 3 weeks, relative to vehicle.

Structures are written as SMILES.

Take `O=C(Nc1ccc[nH]c1=O)c1ncc(-c2cccc(Oc3ccccc3)c2)[nH]1` [PX-08, N-(2-Oxo-1H-pyrid-3-yl)-5-(m-phenoxyphenyl)-1H-imidazole-2-carboxamide]: the “significance of change in IFNγ/TNFα production relative to vehicle treated control” value in assay [1] is reported as “significant decrease at both tested concentrations”.

Consider `O=C(Nc1ccc2c(c1)COC2)c1ncc(-c2cccc(Oc3ccccc3)c2)[nH]1` [PX-04, N-(1,3-Dihydro-5-isobenzofuranyl)-5-(m-phenoxyphenyl)-1H-imidazole-2-carboxamide], for which the “reduction in IFNγ production” value in assay [1] (100 nM) was roughly 55%. Also, the “reduction in IFNγ production” value in assay [1] (1 μM) is listed as roughly 80%. The “significance of change in IFNγ/TNFα production relative to vehicle treated control” value in assay [1] is recorded as “significant decrease at both tested concentrations”. In assay [2], the “IFNγ in the absence of PLXDC2” value was “no difference from vehicle” and the “TNFα in the absence of PLXDC2” value is on record as “no difference from vehicle”. In assay [3], the “IFNγ in the supernatant” value is “greatly suppressed”, the “IL-6 in the supernatant” value is “greatly suppressed”, the “TNF in the supernatant” value is given as “greatly suppressed” and the “concentration of IL-10 in the supernatant” value is recorded as “higher”. In addition, in assay [3], the “IL-10 expression by RNA” value is on record as “slight increase” and the “expression of TNF by RNA” value is listed as “inhibited”. Moreover, the cumulative disease activity result in assay [4] (20 mg/kg once daily oral gavage, 7 days of DSS) is “decreased”. In assay [4] (setting [9]), the “Th17 cells in the colon” value is recorded as “greatly decreased”, the “proportion of CD4+ T cells with IFNγ production” value is “lower proportion”, the “proportion of NK cells with IFNγ production” value is given as “lower proportion” and the “proportion of TNF producing dendritic cells” value is “decreased”. Also, the “regulatory CD4+ T cells in the colon” value in assay [4] (setting [9]) is given as “slight increase”. For the same compound, the “albumin/creatinine ratio in urine” value in assay [5] is “significantly reduced”. The “proportion of splenic CD4+IL10+ T cells relative to vehicle-treated mice” value in assay [6] (after 12 weeks) is “increased proportion”. For the same compound, in assay [6] (at 12 weeks of treatment), the “proteinuria relative to baseline on average” value was “slight improvement”. The proteinuria grade entry in assay [6] (over 12 weeks) is given as “protected mice from the worsening”. Further, the “histological severity of disease in hind ankles (joint space, cartilage erosion, leukocytic infiltration, angiogenesis)” value in assay [7] (2 mg/kg oral, relative to vehicle) was “reduced severity of disease”. In assay [7] (setting [10]), the “gene expression of CXCL1 within the synovium” value was “reduced”, the “gene expression of IL-1β within the synovium” value is on record as “reduced” and the “gene expression of IL-6 within the synovium” value was “reduced”. Also, in assay [7] (daily oral gavage, 3 weeks), the “ratio of TNF+ to IL10+ cells within CD4+ T cell fraction, inguinal lymph node” value was “decreased” and the “ratio of TNF+ to IL10+ cells within myeloid cell fraction, inguinal lymph node” value was “decreased”.

With `O=C(O)c1cccc(NC(=O)c2ncc(-c3cccc(Oc4ccccc4)c3)[nH]2)c1` [PX-09, m-[5-(m-Phenoxyphenyl)-1H-imidazol-2-ylcarbonylamino]benzoic acid], in assay [1], the “significance of change in IFNγ/TNFα production relative to vehicle treated control” value was “significant decrease at both tested concentrations”.

Consider `O=C(Nc1ccccc1)c1nc(-c2cccc(Oc3ccccc3)c2)c[nH]1` [PX-02, N-Phenyl-4-(m-phenoxyphenyl)-1H-imidazole-2-carboxamide], for which the “significance of change in IFNγ/TNFα production relative to vehicle treated control” value in assay [1] is listed as “only induced significant changes at 1 μM”.

`Cn1cccc(NC(=O)c2ncc(-c3cccc(Oc4ccccc4)c3)[nH]2)c1=O` [PX-07, N-(1-Methyl-2-oxo-1H-pyrid-3-yl)-5-(m-phenoxyphenyl)-1H-imidazole-2-carboxamide]: in assay [1] (100 nM), the “reduction in IFNγ production” value is roughly 55%. The “reduction in IFNγ production” value in assay [1] (1 μM) is recorded as roughly 80%. Further, the “significance of change in IFNγ/TNFα production relative to vehicle treated control” value in assay [1] is “significant decrease at both tested concentrations”. Moreover, in assay [2], the “IFNγ in the absence of PLXDC2” value is “no difference from vehicle” and the “TNFα in the absence of PLXDC2” value was “no difference from vehicle”. Further, in assay [3], the “IFNγ in the supernatant” value is reported as “greatly suppressed”, the “IL-6 in the supernatant” value was “greatly suppressed”, the “TNF in the supernatant” value is on record as “greatly suppressed” and the “concentration of IL-10 in the supernatant” value is given as “higher”. For the same compound, in assay [3], the “IL-10 expression by RNA” value is given as “slight increase” and the “expression of TNF by RNA” value is on record as “inhibited”. The “albumin/creatinine ratio in urine” value in assay [5] is “significantly reduced”. The “histological score of kidney damage (composite 0-9)” value in assay [5] (after 12 weeks of treatment) was “significantly reduced”. Moreover, in assay [8], the “proportion of CD1d+T2-MZP B cells in the spleen” value is “increased” and the “proportion of T follicular helper cells (CD4+IL21+BCL6+) in the spleen” value was “decreased”.

These data come from patent publication US11597717B2, “Substituted imidazoles as PLXDC2 ligands” (Landos Biopharma, Inc., priority 2020, dated 2023).
